Marks after values point to notes of the source that are not given here. Blank lines part the entries; values can stand above or below the compound they belong to.
Key:
PLIP [1] = target: T1, PLIP (Mus musculus, UniProt Q66GT5); experiment: Phosphatase activity of various PTPs (malachite green / radiolabeled protein substrates); format: biochemical, murine; details: for Phosphatase activity, PLIP: mole of phosphate released/min/mol of enzyme, pH 5.5, triplicate, this study
T1 construct: ligating a PCR product encoding full-length PLIP; made in house; host or cells: Escherichia coli BL21 (DE3) CodonPlus RIL
T1 sequence (Q66GT5 32-193): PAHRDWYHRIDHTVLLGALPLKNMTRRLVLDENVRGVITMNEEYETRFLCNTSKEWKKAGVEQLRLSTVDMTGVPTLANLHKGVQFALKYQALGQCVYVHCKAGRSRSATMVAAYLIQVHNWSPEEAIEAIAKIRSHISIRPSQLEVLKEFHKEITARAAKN
Procedure: Recombinant murine PLIP was expressed as a fusion protein with N-terminal GST and 6-His tags in Escherichia coli BL21 (DE3) CodonPlus RIL cells (Stratagene). The expression construct was assembled by ligating a PCR product encoding full-length PLIP into the 5′-EcoR1 and 3′-Xho1 sites of a modified pET41 vector (pSJ6), kindly provided by Zhaohui Xu (University of Michigan). […] Cultures were then chilled on ice for 20 min, supplied with fresh antibiotics, induced with IPTG to a final concentration of 0.4 mM, and allowed to grow overnight @ 25° C., as previously described (Taylor and Dixon, 2003). All subsequent steps were performed @ 4° C. The cultures were pelleted by spinning @ 6000 rpm for 10 min in a Sorvall GSA rotor, resuspended in 30 ml of buffer (20 mM Imidazole, 50 mM Tris pH 7.4, 300 mM NaCl) with Complete protease inhibitors (Roche), and lysed via French Press. Insoluble material was removed by centrifugation @ 50,000 rpm for 30 min. The fusion protein was purified from the soluble supernatant first over Ni^2+ agarose beads, and then by successive separation on Superdex 75 and 200 gel filtration columns (Amersham). The resulting protein was concentrated, flash frozen in liquid nitrogen, and stored @−80° C. in 25% glycerol, 2 mM EDTA, and 2 mM DTT until use.
(§1) Di-C8 phosphoinosites (Echelon) and Dioleoyl-phosphatidylserine (Sigma) were dried together in a Speed Vac and resuspended via sonication in 18 μl assay buffer (100 mM sodium acetate, 50 mM bis-Tris, 50 mM Tris (pH 5.5), 10 mM DTT) to final concentrations of 50 μM and 500 μM, respectively. After prewarming at 37° C. for 5 min, reactions were initiated by the addition of 20 to 2000 ng of GST-PLIP diluted in assay buffer containing 1.0 mg/ml gelatin. Reactions were quenched after 5-30 min by the addition of 20 μl 0.1 M N-ethylmaleimide, and spun at 18,000×g for 10 min to sediment the lipid aggregates. Twenty-five microliters of the supernatant was added to 50 μl of malachite green reagent and vortexed. Samples were allowed to sit for 40 minutes for color development before measuring absorbance at 620 nm. Inorganic phosphate release was quantitated by comparison to a standard curve of KH2PO4 in dH2O.
(§2) Assays using radiolabeled protein substrates or pNPP were carried in assay buffer containing 50 mM sodium acetate, 25 mM bis-Tris, 25 mM Tris, and 2 mM DTT at pH 5.5 (GST-PLIP), 6.0 (VHR), or 7.0 (TC-PTP), at 30° C. Radiolabeled proteins and pNPP were prepared and assayed as previously reported (Taylor et al., 1997).

MTM1 [2] = target: T2, MTM1 (Homo sapiens, UniProt Q13496); details: Ref. 32; cited from earlier work
T2 sequence (Q13496 1-603): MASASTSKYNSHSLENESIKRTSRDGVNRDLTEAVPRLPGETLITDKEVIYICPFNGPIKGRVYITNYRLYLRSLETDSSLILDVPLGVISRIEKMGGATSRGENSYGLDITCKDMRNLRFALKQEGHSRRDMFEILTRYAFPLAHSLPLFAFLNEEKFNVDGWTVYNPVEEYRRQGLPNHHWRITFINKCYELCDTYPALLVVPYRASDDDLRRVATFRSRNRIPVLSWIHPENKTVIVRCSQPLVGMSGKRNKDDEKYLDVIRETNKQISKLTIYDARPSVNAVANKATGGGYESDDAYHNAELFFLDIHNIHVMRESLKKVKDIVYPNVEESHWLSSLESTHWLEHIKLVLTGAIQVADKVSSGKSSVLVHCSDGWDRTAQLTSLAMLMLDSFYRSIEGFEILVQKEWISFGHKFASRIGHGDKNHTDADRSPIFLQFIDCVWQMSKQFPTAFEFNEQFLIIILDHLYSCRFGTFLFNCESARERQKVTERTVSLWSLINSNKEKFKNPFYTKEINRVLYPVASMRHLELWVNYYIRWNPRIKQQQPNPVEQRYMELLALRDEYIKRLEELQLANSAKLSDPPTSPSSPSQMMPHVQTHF

PTEN = PTEN (Homo sapiens, UniProt P60484); experiment: Phosphatase activity of various PTPs; format: biochemical; details: for Phosphatase activity, PTEN: phosphoinositide substrates, this study
Chain of PTEN (P60484 whole entry, species assumed): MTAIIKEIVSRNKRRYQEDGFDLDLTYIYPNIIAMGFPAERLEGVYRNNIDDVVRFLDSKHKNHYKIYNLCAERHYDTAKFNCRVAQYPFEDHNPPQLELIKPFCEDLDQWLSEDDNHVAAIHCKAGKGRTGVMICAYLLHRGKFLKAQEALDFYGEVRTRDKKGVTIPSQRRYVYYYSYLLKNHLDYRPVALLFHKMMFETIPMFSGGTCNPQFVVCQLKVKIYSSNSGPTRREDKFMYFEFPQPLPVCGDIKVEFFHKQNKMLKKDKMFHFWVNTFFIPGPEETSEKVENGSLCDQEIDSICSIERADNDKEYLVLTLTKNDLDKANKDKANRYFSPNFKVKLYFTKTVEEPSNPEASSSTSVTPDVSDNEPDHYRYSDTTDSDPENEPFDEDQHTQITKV

PLIP [3] = target: T1, PLIP; experiment: Activity of PLIP against water soluble PI(5)P derivatives of varying acyl chain length; format: biochemical, murine; details: water soluble substrate
PLIP [4] = target: T1, PLIP; experiment: Kinetic analysis of PLIP phosphatase activity (saturation kinetics); format: biochemical, murine
Procedure: as §2
To further explore PLIP's propensity to act as a protein phosphatase, a kinetic analysis of its activity toward the artificial phosphotyrosine analog, para-nitrophenyl phosphate (pNPP), alongside with di-C8 PI(5)P were performed (Taylor et al., 1997). FIG. 3 illustrates the kinetic analysis of PLIP phosphatase activity. Saturation kinetics for PLIP against pNPP (A) and water-soluble di-C8 PI(5)P (B) are shown. V (reaction velocity) is in units of pmol/(min μg).

VHR = VHR (Homo sapiens, UniProt P51452); experiment: Phosphatase activity of various PTPs (malachite green / radiolabeled protein substrates); format: biochemical
Chain of VHR (P51452 whole entry, species assumed): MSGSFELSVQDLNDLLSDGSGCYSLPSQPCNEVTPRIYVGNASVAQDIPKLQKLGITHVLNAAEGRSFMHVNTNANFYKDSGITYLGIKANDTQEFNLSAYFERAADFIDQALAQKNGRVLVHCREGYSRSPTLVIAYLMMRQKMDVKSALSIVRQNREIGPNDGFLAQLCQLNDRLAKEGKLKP
Procedure: as §1, §2
(§3) Due to the only recent emergence of PI(5)P as a known signaling molecule, few PTP's have been tested for activity against this substrate. To ensure that activity against PI(5)P is not a common feature of PTP's, membrane-bound di-C8 PI(5)P was assayed using a known tyrosine-specific PTP (TC-PTP) and a known dual-specific PTP (VHR) (Ishibashi et al., 1992; Zhao et al., 1992; Ruzzene et al., 1993; Zhou et al., 1994; Denu et al., 1995).

TC-PTP = target: T3, TC-PTP (Homo sapiens, UniProt P17706); experiment: as above; format: biochemical
T3 sequence (P17706 1-415): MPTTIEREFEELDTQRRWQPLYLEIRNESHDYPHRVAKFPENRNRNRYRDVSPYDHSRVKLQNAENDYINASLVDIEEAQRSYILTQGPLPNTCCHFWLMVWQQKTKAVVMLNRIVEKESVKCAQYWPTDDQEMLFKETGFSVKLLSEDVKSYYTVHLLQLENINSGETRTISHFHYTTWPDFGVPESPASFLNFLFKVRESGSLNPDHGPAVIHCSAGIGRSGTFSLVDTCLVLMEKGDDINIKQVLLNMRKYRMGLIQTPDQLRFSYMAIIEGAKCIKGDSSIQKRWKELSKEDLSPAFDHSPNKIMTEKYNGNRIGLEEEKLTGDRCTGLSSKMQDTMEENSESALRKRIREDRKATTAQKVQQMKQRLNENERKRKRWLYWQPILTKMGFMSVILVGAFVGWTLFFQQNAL
Procedure: as §1, §2, §3

MTM1 [5] = target: T2, MTM1; experiment: Phosphatase activity of various PTPs; format: biochemical
[6] = mole of phosphate released/min/mol of enzyme, triplicate, this study

Compound: Nc1ncnc2c1ncn2[C@@H]1O[C@H](COP(=O)(O)OP(=O)(O)OP(=O)(O)O)[C@@H](O)[C@H]1O [ATP]
ATPase activity of PTPMT1 in vitro (PLIP [1]): extremely poor

Compound: CCCCCCCC(=O)OC[C@H](COP(=O)(O)O[C@@H]1[C@H](O)[C@H](OP(=O)(O)O)[C@@H](O)[C@H](O)[C@H]1O)OC(=O)CCCCCCC [PI (3) P]
Phosphatase activity, MTM1 (MTM1 [2]): 4470^d mol/(min mol)
Phosphatase activity, PLIP (PLIP [1]): 1.3^b mol/(min mol)
Phosphatase activity, PTEN (PTEN): 77.9^b mol/(min mol)

Compound: O=[N+]([O-])c1ccc(OP(=O)(O)O)cc1 [pNPP, para-nitrophenyl phosphate]
Km fold higher than Km for di-C8 PI(5)P (PLIP [4]): more than 150 fold
Km (PLIP [4]; PLIP against pNPP): 5900 µM

Compound: casein
PLIP activity, fold lower than against PI(5)P (PLIP [1]; radiolabeled protein substrates): approximately 1000 fold

Further lines, with some results ahead:

Phosphatase activity, PLIP (PLIP [1]): 3.1^b mol/(min mol)
PTEN fold preference over PI(3,5)P2 (PTEN; di-C8 PIs in lipid bilayer with phosphatidylserine carrier lipid): 1.8 fold
Phosphatase activity, PTEN (PTEN): 346^b mol/(min mol)
Compound: CCCCCCCC(=O)OC[C@H](COP(=O)(O)OC1[C@H](O)[C@H](OP(=O)(O)O)C(OP(=O)(O)O)[C@H](OP(=O)(O)O)[C@H]1O)OC(=O)CCCCCCC (stereo partly drawn) [PI (3, 4, 5) P3]
Phosphatase activity, MTM1 (MTM1 [2]): 2.1^d mol/(min mol)

Fold increase in PLIP activity versus inositol (1,5)P2 (PLIP [3]): 10 fold
Compound: CCCC(=O)OCC(COP(=O)(O)OC1C(O)C(O)C(O)C(OP(=O)(O)O)C1O)OC(=O)CCC (stereo not drawn) [di-C4 PI(5)P]

Km (PLIP [4]; PLIP against water-soluble di-C8 PI(5)P): 37.5 µM
VHR activity (VHR; membrane-bound di-C8 PI(5)P): barely detectable above background
Phosphatase activity, VHR (VHR; [6]): ~0.0^b mol/(min mol)
TC-PTP activity (TC-PTP; membrane-bound di-C8 PI(5)P): barely detectable above background
Phosphatase activity, TC-PTP (TC-PTP; [6]): ~0.0^b mol/(min mol)
PLIP activity, fold greater than against PI(3,5)P2 (PLIP [1]; di-C8 PI's in lipid bilayer with phosphatidylserine carrier lipid): 44 fold
Phosphatase activity, PLIP (PLIP [1]): 135^b mol/(min mol)
Fold increase in PLIP activity versus di-C4 PI(5)P (PLIP [3]): 10 fold
PTEN: fold less efficiency than toward preferred substrate (PTEN): 17 fold
Phosphatase activity, PTEN (PTEN): 20.4^b mol/(min mol)
MTM1: fold less efficiency than toward preferred substrate (MTM1 [5]): 200 fold
Compound: phosphatidylinositol-5 phosphate [PI (5) P]
Phosphatase activity, MTM1 (MTM1 [2]): 22.7^d mol/(min mol)

Reference: patent US7749976B2, “Isolated PTPMT1 protein which mediates insulin production and uses thereof” (The Regents of the University of California, priority 2005, dated 2010)
